Measured values taken from US8450333B2, “Molecules for regulating cell death” (The Regents of The University of California, priority 2003, dated 2013).

Experiments:
[1] = test system: mammalian COS cells; test: Mitochondrial morphology in mammalian COS cells; assay type: cell-based
Text: Drp1, the mammalian mitochondrial fission DRP, has a high degree of similarity and identity to its yeast ortholog, Dnm1. This encouraged us to exploit the chemical genetic approach and examine the effects of mfisi-1 on mitochondrial morphology in mammalian cells. In mammalian cells, it has been established that when fission is retarded by expression of dominant-negative Drp1, mitochondria become progressively more interconnected, form net-like structures, and collapse into degenerate perinuclear structures in cells. Remarkably, the addition of mfisi-1 to mammalian COS cells in culture caused a rapid and reversible change in mitochondrial morphology equivalent to that observed upon expression of dominant negative Drp1 in double-binded experiments (FIG. 12, n=100: untreated; 0% collapsed nets, 14% loose nets, 70% reticular, 15% fragmented; mfisi-1 treated; n=100, 19% collapsed nets, 45% loose nets, 36% reticular, 0% fragmented). The EC50 of mfisi-1 effects on mitochondrial morphology in mammalian cells is similar to that observed for the effect of mfisi-1 on mitochondrial morphology in yeast (EC50=10 µM).

[2] = test system: yeast cells; test: Time-lapse fluorescence microscopy of mitochondrial fission and fusion events in yeast; assay type: cell-based, S. cerevisiae; conditions: time-lapse after drug addition
Text: To distinguish whether compounds specifically affect mitochondrial fission or fusion, we directly measure the rates of these events by examining the behavior of mitochondria using time-lapse fluorescence microscopy after drug addition. We routinely perform this type of experiment using a DeltaVision deconvolution microscope.
Formally, the small molecules we identified could produce their phenotypes by either inhibiting or activating fission or fusion. To distinguish the exact effects of mfisi-1 and other small molecules identified in our screens on mitochondrial dynamics, we have directly measured the rates of fission and fusion events after drug addition in yeast cells by examining the behavior of mitochondria using time-lapse fluorescence microscopy. […] In contrast, in DMSO treated control cells, both fission and fusion events were easily detected in the same time frame.

[3] = test system: actin cytoskeleton and peripheral ER network; test: Actin cytoskeleton and peripheral ER network in yeast; assay type: cell-based; conditions: 100 μM, versus DMSO-treated cells, n=50
Text: These structures are routinely examined in yeast mitochondrial morphology mutants as a test for the specificity of the mitochondrial phenotype.

[4] = target: T1, dynamin-1 (Homo sapiens, UniProt Q05193); test: Assembly-stimulated GTP hydrolysis by dynamin-1; assay type: biochemical
T1 sequence (Q05193 1-864): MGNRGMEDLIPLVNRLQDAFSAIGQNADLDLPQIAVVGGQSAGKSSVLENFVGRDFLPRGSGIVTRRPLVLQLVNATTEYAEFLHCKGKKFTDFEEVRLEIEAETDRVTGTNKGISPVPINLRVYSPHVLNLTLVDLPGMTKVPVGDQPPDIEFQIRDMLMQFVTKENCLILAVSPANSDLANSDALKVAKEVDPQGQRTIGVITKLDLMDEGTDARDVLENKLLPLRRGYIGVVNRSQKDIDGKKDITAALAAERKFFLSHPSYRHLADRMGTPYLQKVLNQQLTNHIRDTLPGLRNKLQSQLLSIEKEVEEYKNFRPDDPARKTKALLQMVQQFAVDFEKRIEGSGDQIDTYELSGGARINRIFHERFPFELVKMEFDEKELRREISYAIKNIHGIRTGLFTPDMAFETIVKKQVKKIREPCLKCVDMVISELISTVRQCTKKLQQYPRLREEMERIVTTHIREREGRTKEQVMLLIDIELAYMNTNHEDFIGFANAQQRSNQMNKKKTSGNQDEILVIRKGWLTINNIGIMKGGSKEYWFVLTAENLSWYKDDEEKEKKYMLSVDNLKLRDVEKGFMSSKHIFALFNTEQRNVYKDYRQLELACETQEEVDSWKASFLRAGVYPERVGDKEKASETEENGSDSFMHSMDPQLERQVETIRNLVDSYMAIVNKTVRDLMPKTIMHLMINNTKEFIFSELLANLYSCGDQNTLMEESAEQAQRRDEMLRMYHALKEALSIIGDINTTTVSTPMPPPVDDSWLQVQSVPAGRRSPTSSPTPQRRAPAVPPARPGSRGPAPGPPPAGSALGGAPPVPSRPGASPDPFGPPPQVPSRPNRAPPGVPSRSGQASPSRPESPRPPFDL
Text: Our observations raise the question of whether mfisi-1 is simply a general inhibitor of GTPase super family members and/or DRPs. It seems unlikely that mfisi-1 is an inhibitor of all GTPase superfamily members, given that it has no effect on GTPase-dependent activities, such as maintenance of the actin cytoskeleton. To more directly address this question, however, we examined the effects of mfisi-1 on the DRP, dynamin-1, which functions during endocytosis in the scission of clathrin coated pits from the plasma membrane. […] We will continue to explore the specificity of mfisi-1 for DRPs by determining its effects on the mammalian Dnm1 ortholog, Drp1. […] Taken together, our data are consistent with mfisi-1 functioning in vivo as a selective inhibitor of the dynamin-related GTPase, Dnm1, to block mitochondrial fission.

[5] = test system: wild type yeast cells; test: Mitochondrial morphology in yeast (secondary screen, mitochondrial targeted GFP); assay type: cell-based, S. cerevisiae
Text: Secondary screens: Compounds identified in the primary growth assay-based screens outlined above are screened secondarily by examining their effects on mitochondrial morphology. We use the steady state structure of mitochondria as an indicator of the relative rates of mitochondrial fission and fusion in cells. […] Mitochondria are visualized using a mitochondrial targeted GFP that is efficiently targeted to both wild type and respiratory deficient mitochondria (Tieu et al., 2000 The Journal of Cell Biology 151, 353-365.).
All compounds identified in the primary growth assay-based screens outlined above were screened secondarily by examining their effects on mitochondrial morphology in yeast. From previous work, we know that the steady state structure of mitochondria is an indicator of the relative rates of mitochondrial fission and fusion in cells (FIG. 7). Specifically, net-like structures indicate a block in fission, and fragmented mitochondrial structures indicate a block in fusion. […] In this secondary assay, small molecules were judged to be a hit if they produced a mutant phenotype in greater than 5% of the cell population.
To determine what structural features are important for the effects of mfisi-1 on mitochondrial fission, we identified structurally related molecules using a chemoinformatics approach. We utilized web-based ChemNavigator to search available public and commercial compound databases for small molecules that uniquely represented key structural features of mfisi-1. We tested a total of 15 small molecules related to mfisi-1 for their effects on mitochondrial morphology in yeast, each at a concentration of 50 μM (Table 3).

[6] = Structure Function Analysis of A1, A2, and A3, fraction of yeast cells
[7] = fraction of wild type yeast cells

COc1cc(-n2c(S)nc3ccccc3c2=O)c(Cl)cc1Cl [mfisi-1, 3-(2,4-Dichloro-5-methoxy-phenyl)-2-mercapto-3H-quinazolin-4-one]
% collapsed nets ([1]; COS cells, n=100): 19% | % fragmented ([1]; COS cells, n=100): 0% | % loose nets ([1]; COS cells, n=100): 45% | % reticular ([1]; COS cells, n=100): 36% | EC50 ([1]; COS, mammalian cells, similar to yeast, read-out: EC50, effects on mitochondrial morphology): 10 µM | mitochondrial fission events / rate of fission [2]: no detectable fission events were observed | mitochondrial fusion events / rate of fusion [2]: fusion events occurred | changes in actin cytoskeleton or peripheral ER network [3]: did not result in significant changes | effect on assembly-stimulated rates of GTP hydrolysis for dynamin-1 [4]: had no effect | effect on mitochondrial morphology in yeast cells [5]: caused the formation of mitochondrial net-like structures | IC50 ([5]; Saccharomyces cerevisiae, read-out: IC50, formation of net-like mitochondria): 10 to 20 µM | Fragmented [5, 6]: .05 | Nets [5, 6]: .55 | Reticular [5, 6]: .40 | Mitochondrial Morphology after Drug is Added: Fragmented [5, 7]: .05 | Mitochondrial Morphology after Drug is Added: Nets [5, 7]: .55 | Mitochondrial Morphology after Drug is Added: Reticular [5, 7]: .40 | time after addition until net-like mitochondria form ([5]; wild type cells, sub-μM concentrations): ≤ 1 min | % net-like structures ([5]; yeast, each at a concentration of 50 μM): 60%
